# According to US7939563B2, “Remedy for hypertension” (Kao Corporation, priority 2001, dated 2011):
# Columns and labels:
# [1] = tested on: spontaneously hypertensive male rats (SHR); test: Measurement of an antihypertensive effect: oral administration, systolic blood pressure of the caudal artery; type: in vivo, rat; conditions: 50 mg/Kg oral
# Experimental: After each of 15 week-old, spontaneously hypertensive male rats (“SHR”) was accustomed to sphygmomanometric operation by preliminarily measuring its blood pressure for 7 successive days using a commercially available noninvasive sphygmomanometer for rats (manufactured by Softlon Co., Ltd.), the evaluation test was started. The rats were all bred under conditions (in a breeding room in a rat region) at a room temperature of 25±1° C., humidity of 55±10% RH and illumination for 12 hours (from 7:00 am to 7:00 pm).
# In the test plot (Comparative Example), a solution of ferulic acid (50 mg/kg as a dose) in physiological saline was employed. In Test plot 2, Test plot 3, Test plot 4, Test plot 5 and Test plot 6, a solution of chlorogenic acid (50 mg/kg as a dosage) in physiological saline, oryzanol (50 mg/kg as a dosage), curcumin (50 mg/kg as a dosage), phenylethyl caffeate (50 mg/kg as a dosage) and rosmarinic acid (50 mg/kg as a dosage) were used, respectively. In each test plot, physiological saline was employed as a control. Each of the samples was orally administered.
# SHRs were fasted overnight and divided into groups, each consisting of 5 rats. Systolic blood pressures of the caudal artery were measured prior to administration, and several times during 30 minutes to 24 hours after administration
# The test results thus obtained were expressed by the mean value (%) and […] (SE) of the changing ratio (%) in systolic blood pressure.
# A lowering ratio of the systolic blood pressure measured during 30 minutes to 24 hours each after administration relative to the systolic blood pressure prior to administration is shown in Table 1.
# [2] = Blood level time course of ferulic acid after administration; type: in vivo
# [3] = Blood levels of chlorogenic acid, caffeic acid and ferulic acid after oral chlorogenic acid in SHR; type: in vivo, rat; set-up: unit not given here; conditions: 200 mg/kg chlorogenic acid oral once
# Experimental: To the SHR, 200 mg/kg of chlorogenic acid was orally administered once.
# SHRs were fasted overnight and then divided into groups, each consisting of 5 rats.
# [4] = tested on: spontaneously hypertensive male rats (SHR); test: Identification of an antihypertensive component: intravenous administration, systolic blood pressure of the carotid artery; type: in vivo, rat; conditions: anesthetized 15 week-old SHR, 5 μg mol/kg in physiological saline, intravenous via femoral vein catheter
# Experimental: Its electrocardiograph was recorded by an electrocardiogram. A sample was injected to the femoral vein through a catheter. After the rats were accustomed sufficiently to the sphygmomanometric operation, the evaluation test was started. The rats were all bred under conditions (in a breeding room in a rat region) at a room temperature of 25±1° C., humidity of 55±10% RH and illumination for 12 hours (from 7:00 am to 7:00 pm). In the control plot, physiological saline was employed. […] Through a catheter, the sample was intravenously administered and while administration, systolic blood pressures of the carotid artery were measured with the passage of time.
# [5] = Blood levels after 6 weeks of a beverage mixture containing an extract of raw coffee beans, liquid chromatography; type: in vivo; conditions: human, plasma, oral; read-out: blood level 24 hours after administration of chlorogenic acid
# Experimental: The blood levels of chlorogenic acid, caffeic acid and ferulic acid were measured using liquid chromatography.
# [6] = time 0 (prior to administration)
Compound,"changing ratio in systolic blood pressure (mean) [1, 6] [%]",changing ratio in systolic blood pressure (mean) ([1]; time 6 after administration) [%],changing ratio in systolic blood pressure (mean) ([1]; time 12 after administration) [%],changing ratio in systolic blood pressure (mean) ([1]; time 24 after administration) [%],"blood level after the administration of chlorogenic acid [3, 6]",blood level after the administration of chlorogenic acid ([3]; time 3),blood level after the administration of chlorogenic acid ([3]; time 6),blood level after the administration of chlorogenic acid ([3]; time 9),blood level after the administration of chlorogenic acid ([3]; time 12),blood level after the administration of chlorogenic acid ([3]; time 24),fluctuation in systolic blood pressure of the carotid artery [4],further results
"O=C(/C=C/c1ccc(O)c(O)c1)OCCc1ccccc1 [phenylethyl caffeic acid, phenylethyl caffeate]",0,−13.7,−1.3,−0.7,–,–,–,–,–,–,–,–
COc1cc(/C=C/C(=O)O)ccc1O [ferulic acid],0,−3.2,–,–,0,0.074,0.154,0.174,0.145,0,lowering in the blood pressure was recognized,time after which metabolism and excretion are completed [2]: about 4 hours; time at which the blood level reaches the maximum [2]: about 2 hours; concentration at 24 h [5]: 104 ng/mL; changing ratio in systolic blood pressure (mean) ([1]; time 0.5 after administration): −9.5%; changing ratio in systolic blood pressure (mean) ([1]; time 1 after administration): −10.3%; changing ratio in systolic blood pressure (mean) ([1]; time 2 after administration): −6.8%; changing ratio in systolic blood pressure (mean) ([1]; time 4 after administration): −7.9%
"O=C(/C=C/c1ccc(O)c(O)c1)O[C@H](Cc1ccc(O)c(O)c1)C(=O)O [rosemaric acid, rosmarinic acid]",0,−6.4,0.9,2.2,–,–,–,–,–,–,–,–
O=C(O)[C@]1(O)C[C@@H](O)[C@@H](O)[C@H](O)C1 [quinic acid],–,–,–,–,–,–,–,–,–,–,Fluctuations in the blood pressure was not recognized,–
oryzanol,0,–,–,–,–,–,–,–,–,–,–,changing ratio in systolic blood pressure (mean) ([1]; time 1 after administration): −15.2%; changing ratio in systolic blood pressure (mean) ([1]; time 2 after administration): −12.8%; changing ratio in systolic blood pressure (mean) ([1]; time 4 after administration): −13.8%
O=C(O)/C=C/c1ccc(O)c(O)c1 [caffeic acid],–,–,–,–,0,0.07,0.179,0.166,0.05,0,Fluctuations in the blood pressure was not recognized,concentration at 24 h [5]: 95.4 ng/mL
"O=C(/C=C/c1ccc(O)c(O)c1)O[C@H]1[C@H](O)C[C@](O)(C(=O)O)C[C@H]1O [4-chlorogenic acid, 4-caffeoylquinic acid]",0,−8.5,−9.1,−11.0,–,–,–,–,–,–,–,–
"O=C(/C=C/c1ccc(O)c(O)c1)O[C@@H]1C[C@](O)(C(=O)O)C[C@@H](O)[C@H]1O [5-chlorogenic acid, 5-caffeoylquinic acid]",–,–,–,–,0,0,0,0,0,0,–,–
COc1cc(/C=C/C(=O)CC(=O)/C=C/c2ccc(O)c(OC)c2)ccc1O [curcumin],0,−15.2,−3.5,−5.3,–,–,–,–,–,–,–,–
